Data published in US20190185567A1, “COMBINATIONS FOR THE TREATMENT OF CANCER” (IGNYTA, INC., priority 2016, published 2019).

Columns and labels:
4T1-Luc2-1A4 cells = assay: 4T1-Luc2-1A4 mammary fat pad tumor model: tumor burden by caliper and BLI, metastases; type: in vivo, Balb/c mice; conditions: once daily for 15 days (Days 3-17); for Day 14 T/C (whole body BLI) / Day 14 median T/C (caliper measurements): p>0.05
Experimental: Female Envigo Balb/c mice (BALB/cAnNHsd) were used in this study. They were 6-7 weeks old on day 1 of the experiment. The animals were fed irradiated Harlan 2918.15 Rodent Diet and water ad libitum. Animals were housed in static cages with Bed-O'Cobs™ bedding inside Biobubble® Clean Rooms that provide H.E.P.A filtered air into the bubble environment at 100 complete air changes per hour. All treatments, imaging, body weight determinations, and tumor measurements were carried out in the bubble environment. The environment was controlled to a temperature range of 70°±2° F. and a humidity range of 30-70%.
4T1-Luc2-1A4 cells were obtained from PerkinElmer. They were grown in RPMI 1640 medium which was modified with 1% 100 mM Na pyruvate, 1% 1M HEPES buffer, 2.5 g/L glucose solution and supplemented with 10% non-heat-inactivated Fetal Bovine Serum (FBS) and 1% 100X Penicillin/Streptomycin/L-Glutamine (PSG). The growth environment was maintained in an incubator with a 5% CO2 atmosphere at 37° C. When expansion was complete, the cells (passage 5) were trypsinized using 0.25% trypsin-EDTA solution. Following cell detachment, the trypsin was inactivated by dilution with complete growth medium and any clumps of cells were separated by pipetting. The cells were centrifuged at 200 rcf for 8 minutes at 8° C., the supernatant was aspirated, and the pellet was re-suspended in cold Dulbecco's Phosphate Buffered Saline (DPBS) by pipetting. An aliquot of the homogeneous cell suspension was diluted in a trypan blue solution and counted using a Luna automated cell counter. The pre-implantation cell viability was 95%. The cell suspension was centrifuged at 200 rcf for 8 minutes at 8° C. The supernatant was aspirated and the cell pellet was re-suspended in cold 50% serum-free medium 50% Matrigel® to generate a final concentration of 1.0E+07 trypan-excluding cells/mL. The cell suspension was maintained on wet ice during implantation. Following implantation, an aliquot of the remaining cells was diluted with a trypan blue solution and counted to determine the post-implantation cell viability (95%).
Test animals were implanted subcutaneously into the mammary fat pad (MFP#4) on Day 0 with 5.0E+05 cells in 50 μL of serum free media in 50% Matrigel® using a 27-gauge needle and 1 mL syringe.
All mice were sorted into study groups based on body weight. The mice were distributed to ensure that the mean body weight for all groups was within 10% of the overall mean for the study population (group range 16.8-17.2 g). Treatment began on Day 3, prior to the tumors being palpable. All mice were dosed 0.2 mL/20 g. • Group 1: Vehicle Control (50% PEG400; 50% oleic acid) PO, once daily for 15 days (Days 3-17); • Group 2: N-[4-[(6,7-dimethoxy-4-quinolinyl)oxy]-3-fluorophenyl]-3-(4-fluorophenyl)-1,2,3,4-tetrahydro-1-(1-methylethyl)-2,4-dioxo-5-pyrimidinecarboxamide, 30 mg/kg PO, once daily for 15 days (Days 3-17); • Group 3: N-[4-[(6,7-dimethoxy-4-quinolinyl)oxy]-3-fluorophenyl]-3-(4-fluorophenyl)-1,2,3,4-tetrahydro-1-(1-methylethyl)-2,4-dioxo-5-pyrimidinecarboxamide, 10 mg/kg PO, once daily for 15 days (Days 3-17); • Group 4: N-[4-[(6,7-dimethoxy-4-quinolinyl)oxy]-3-fluorophenyl]-3-(4-fluorophenyl)-1,2,3,4-tetrahydro-1-(1-methylethyl)-2,4-dioxo-5-pyrimidinecarboxamide, 1 mg/kg PO, once daily for 15 days (Days 3-17); • Group 5: anti-CTLA-4 clone 9D9 antibody, 10 mg/kg IP, every third day for 2 treatments, then a 3 day rest for 2.5 weeks (Days 3, 6, 10, 13, 17) • Group 6: anti-CTLA-4 clone 9D9 antibody, 10 mg/kg IP, every third day for 2 treatments, then a 3 day rest for 2.5 weeks (Days 3, 6, 10, 13, 17), plus N-[4-[(6,7-dimethoxy-4-quinolinyl)oxy]-3-fluorophenyl]-3-(4-fluorophenyl)-1,2,3,4-tetrahydro-1-(1-methylethyl)-2,4-dioxo-5-pyrimidinecarboxamide, 30 mg/kg PO, once daily for 15 days (Days 3-17). […]

[1] = tested on: hematopoietic cell subsets; assay: Hematopoietic cell subset mean percentages in tumor and spleen, subjective comparison to the Control Group; type: in vivo, Balb/c mice; conditions: once daily (Days 3-17); for CD45+ cells that expressed PD-L1, increase vs Control Group: spleen
[2] = Assessment of side effects (tolerability, mortality, body weight); type: in vivo; conditions: once daily for 15 days (Days 3-17); for mean body weight loss: highest at study termination
Experimental: Animals were weighed on each day of treatment. Individual body weights were recorded three times weekly.
In this report, a dosage level is described as tolerated if treatment-related weight loss (during and two weeks after treatment) is <20% and mortality during this period in the absence of potentially lethal tumor burdens is <10%.
Upon death or euthanasia, all animals were necropsied to provide a general assessment of potential cause of death and perhaps target organs for toxicity. The presence or absence of metastases was also noted.

SMILES: COc1cc2nccc(Oc3ccc(NC(=O)c4cn(C(C)C)c(=O)n(-c5ccc(F)cc5)c4=O)cc3F)c2cc1OC [N-[4-[(6,7-dimethoxy-4-quinolinyl)oxy]-3-fluorophenyl]-3-(4-fluorophenyl)-1,2,3,4-tetrahydro-1-(1-methylethyl)-2,4-dioxo-5-pyrimidinecarboxamide]
- incidence of ex vivo lung metastases (4T1-Luc2-1A4 cells; 1 mg/kg PO): 100%
- tumor free survivors (4T1-Luc2-1A4 cells; 1 mg/kg PO): 0%
- incidence of axillary lymph node metastases based on in vivo imaging (4T1-Luc2-1A4 cells; 1 mg/kg PO, 8/14): 57%
- Day 14 T/C (whole body BLI) (4T1-Luc2-1A4 cells; 1 mg/kg PO): 139%
- Day 14 median T/C (caliper measurements) (4T1-Luc2-1A4 cells; 1 mg/kg PO): 131%
- incidence of ex vivo lung metastases (4T1-Luc2-1A4 cells; 10 mg/kg PO): 100%
- tumor free survivors (4T1-Luc2-1A4 cells; 10 mg/kg PO): 0%
- incidence of axillary lymph node metastases based on in vivo imaging (4T1-Luc2-1A4 cells; 10 mg/kg PO, 2/14): 14%
- Day 14 T/C (whole body BLI) (4T1-Luc2-1A4 cells; 10 mg/kg PO): 133%
- Day 14 median T/C (caliper measurements) (4T1-Luc2-1A4 cells; 10 mg/kg PO): 100%
- incidence of ex vivo lung metastases (4T1-Luc2-1A4 cells; 30 mg/kg PO): 100%
- tumor free survivors (4T1-Luc2-1A4 cells; 30 mg/kg PO): no tumor free survivors
- incidence of axillary lymph node metastases based on in vivo imaging (4T1-Luc2-1A4 cells; 30 mg/kg PO, 3/14): 21%
- Day 14 T/C (whole body BLI) (4T1-Luc2-1A4 cells; 30 mg/kg PO): 54%
- Day 14 median T/C (caliper measurements) (4T1-Luc2-1A4 cells; 30 mg/kg PO): 55%
- NK cells that produced IFN-γ upon ex-vivo re-stimulation, increase vs Control Group ([1]; NK cells isolated from spleens, 30 mg/kg PO): 22%
- NK cells that produced IFN-γ upon ex-vivo re-stimulation, increase vs Control Group ([1]; NK cells isolated from tumors, 30 mg/kg PO): 75%
- CD45+ cells that expressed PD-L1, increase vs Control Group ([1]; 10 mg/kg PO): 8%
- CD45+ cells that expressed PD-L1, increase vs Control Group ([1]; 30 mg/kg PO): 16%
- CD45+ cells expressing PD-L1, reduction vs Control Group ([1]; tumor, 1 mg/kg PO): 14%
- CD4+ T subset as a percent of total T cells, reduction vs Control Group ([1]; tumor, 10 mg/kg PO): 51%
- CD45+ cells expressing PD-L1, reduction vs Control Group ([1]; tumor, 10 mg/kg PO): 5%
- Treg subset as a percent of total T cells, reduction vs Control Group ([1]; tumor, 10 mg/kg PO): 61%
- Tumor-derived cells that expressed CD45, increase vs Control Group ([1]; tumor, 10 mg/kg PO): 18%
- CD4+ T subset as a percent of total T cells, reduction vs Control Group ([1]; tumor, 30 mg/kg PO): 54%
- G-MDSC subset, reduction vs Control Group ([1]; tumor, 30 mg/kg PO): 18%
- M2 MAC subset, increase vs Control Group ([1]; tumor, 30 mg/kg PO): 72%
- Treg subset as a percent of total T cells, reduction vs Control Group ([1]; tumor, 30 mg/kg PO): 69%
- Tumor-derived cells that expressed CD45, increase vs Control Group ([1]; tumor, 30 mg/kg PO): 14%
- tolerability ([2]; 1 mg/kg PO): well-tolerated
- treatment-related mortality ([2]; 1 mg/kg PO): no treatment-related mortality
- mean body weight loss ([2]; 1 mg/kg PO): 2.1%
- tolerability ([2]; 10 mg/kg PO): well-tolerated
- treatment-related mortality ([2]; 10 mg/kg PO): no treatment-related mortality
- mean body weight loss ([2]; 10 mg/kg PO): 4.2%
- body weight change ([2]; 30 mg/kg PO): body weight gain
- tolerability ([2]; 30 mg/kg PO): well-tolerated
- treatment-related mortality ([2]; 30 mg/kg PO): no treatment-related mortality
